Source: patent publication US7414048B2, “4,5-dihydro-isoxazole derivatives and their pharmaceutical use” (Janssen Pharmaceutica, N.V., priority 1998, dated 2008)

What follows are compounds tested on T cell blast formation in human blood (assay: In vitro inhibition of T cell blast formation in human blood (human whole blood blast formation, PHA stimulated, flow cytometry)). Settings: Test Dose 1 × 10^−5 (unit not given), 72 hours, mean where multiple measurements.
Type: cell-based
Procedure: Cells are collected after a 72 hours culture period at 37° C., supernatant is removed by centrifugation and red blood cells are lysed by a hypotonic buffer. The remaining white blood cells are collected in PBS containing propidium iodide. The blast formation is analyzed using a benchtop flow cytometer (Cytoron, Ortho) equipped with an argon-ion laser. […] When multiple measurements were performed, a mean value was calculated for the percentage inhibition of T cell blast formation.
In the case of O=C(Nc1ccc(Oc2ccccc2)cc1)C1CC(c2cccnc2)=NO1 (stereo not drawn) [Compound 36], the “% Inhibition of T cell blast formation” value is reported as 85%.

Same assay, conditions: Test Dose 1 × 10^−6 (unit not given), 72 hours, mean where multiple measurements
In the case of C#CC(O)(c1ccccc1)c1ccc(NC(=O)C2CC(c3cccnc3)=NO2)cc1 (racemic) [Compound 69, [B(R)]±[B(S)]-4,5-dihydro-N-[4-(1-hydroxy-1-phenyl-2-propynyl)phenyl]-3-(3-pyridinyl)-5-isoxazolecarboxamide], the “% Inhibition of T cell blast formation” value is reported as 73%.
In the case of C=CCOc1ccccc1/C=C/C(=O)c1ccc(NC(=O)C2CC(c3cccnc3)=NO2)cc1 (racemic) [Compound 470], the “% Inhibition of T cell blast formation” value is reported as 87%.
With COc1ccc(/C=C/C(=O)c2ccc(NC(=O)C3CC(c4cccnc4)=NO3)cc2)c(C)c1C (racemic) [Compound 479] the “% Inhibition of T cell blast formation” value was 85%.
With O=C(Nc1ccc(C(O)(c2ccccc2)c2ccccn2)cc1)C1CC(c2cccnc2)=NO1 (single isomer, unassigned) [Compound 68] the “% Inhibition of T cell blast formation” value was 61%.
In the case of O=C(c1ccc(NC(=O)C2CC(c3cccnc3)=NO2)cc1)c1ccccn1 (single isomer, unassigned) [Compound 394], the “% Inhibition of T cell blast formation” value is reported as 84%.
For O=C(Nc1ccc(C(=NO)c2ccccc2)cc1)C1CC(c2cccnc2)=NO1 (single isomer, unassigned) [Compound 420], the “% Inhibition of T cell blast formation” value was 39%.
With O=C(Nc1ccc(C(O)c2ccccn2)cc1)C1CC(c2cccnc2)=NO1 (single isomer, unassigned) [Compound 525] the “% Inhibition of T cell blast formation” value was 74%.
For COc1cccc(C(=O)c2ccc(NC(=O)C3CC(c4cccnc4)=NO3)cc2)c1 (stereo not drawn) [Compound 9], the “% Inhibition of T cell blast formation” value was 71%.
In the case of Cc1cccc(C(=O)c2ccc(NC(=O)C3CC(c4cccnc4)=NO3)cc2)c1 (stereo not drawn) [Compound 10], the “% Inhibition of T cell blast formation” value is reported as 75%.
With O=C(c1ccc(NC(=O)C2CC(c3cccnc3)=NO2)cc1)c1cccc(F)c1 (stereo not drawn) [Compound 12] the “% Inhibition of T cell blast formation” value was 83%.
With O=C(c1ccc(F)cc1)c1ccc(NC(=O)C2CC(c3cccnc3)=NO2)cc1 (stereo not drawn) [Compound 13] the “% Inhibition of T cell blast formation” value was 78%.
With O=C(c1ccc(NC(=O)C2CC(c3cccnc3)=NO2)cc1)c1ccccc1Cl (stereo not drawn) [Compound 14] the “% Inhibition of T cell blast formation” value was 78%.
For CC(C#N)(c1ccc(F)cc1)c1ccc(NC(=O)C2CC(c3cccnc3)=NO2)cc1F (stereo not drawn) [Compound 39], the “% Inhibition of T cell blast formation” value was 67%.
In the case of CC(C#N)(c1ccccc1)c1ccc(NC(=O)C2CC(c3cccnc3)=NO2)cc1 (stereo not drawn) [Compound 45], the “% Inhibition of T cell blast formation” value is reported as 78%.
With COC(c1ccccc1)c1ccc(NC(=O)C2CC(c3cccnc3)=NO2)cc1.Cl (stereo not drawn) [Compound 52] the “% Inhibition of T cell blast formation” value was 89%.
For Nc1nc(-c2ccccc2)c(C(c2ccccc2)c2ccc(NC(=O)C3CC(c4cccnc4)=NO3)cc2)s1 (stereo not drawn) [Compound 53], the “% Inhibition of T cell blast formation” value was 39%.
In the case of O=C(Nc1ccc(C(NC2CC2)c2ccccc2)cc1)C1CC(c2cccnc2)=NO1 (stereo not drawn) [Compound 90], the “% Inhibition of T cell blast formation” value is reported as 33%.
For Cn1ncc2ccc(CNC(c3ccccc3)c3ccc(NC(=O)C4CC(c5cccnc5)=NO4)cc3)cc21 (stereo not drawn) [Compound 94], the “% Inhibition of T cell blast formation” value was 44%.
For O=C(Nc1ccc(C(Nc2ccc3[nH]nnc3c2)c2ccccc2)cc1)C1CC(c2cccnc2)=NO1 (stereo not drawn) [Compound 96], the “% Inhibition of T cell blast formation” value was 39%.
For O=C(Nc1ccc(C(NCc2ccncc2)c2ccccc2)cc1)C1CC(c2cccnc2)=NO1 (stereo not drawn) [Compound 97], the “% Inhibition of T cell blast formation” value was 58%.
In the case of O=C(Nc1ccc(C(Nc2ccccn2)c2ccccc2)cc1)C1CC(c2cccnc2)=NO1 (stereo not drawn) [Compound 99], the “% Inhibition of T cell blast formation” value is reported as 83%.
With CC(C)NC(c1ccccc1)c1ccc(NC(=O)C2CC(c3cccnc3)=NO2)cc1 (stereo not drawn) [Compound 100] the “% Inhibition of T cell blast formation” value was 35%.
With Cn1cnc2cc(NC(c3ccccc3)c3ccc(NC(=O)C4CC(c5cccnc5)=NO4)cc3)ccc21 (stereo not drawn) [Compound 101] the “% Inhibition of T cell blast formation” value was 70%.
CN1CCC(NC(c2ccccc2)c2ccc(NC(=O)C3CC(c4cccnc4)=NO3)cc2)CC1 (stereo not drawn) [Compound 102] was tested, and the “% Inhibition of T cell blast formation” value was 66%.
With CN1CCC(CNC(c2ccccc2)c2ccc(NC(=O)C3CC(c4cccnc4)=NO3)cc2)CC1 (stereo not drawn) [Compound 103] the “% Inhibition of T cell blast formation” value was 82%.
With O=C(Nc1ccc(C(NC2CCN(Cc3ccccc3)CC2)c2ccccc2)cc1)C1CC(c2cccnc2)=NO1 (stereo not drawn) [Compound 104] the “% Inhibition of T cell blast formation” value was 60%.
With COc1cc(S(N)(=O)=O)ccc1NC(c1ccccc1)c1ccc(NC(=O)C2CC(c3cccnc3)=NO2)cc1 (stereo not drawn) [Compound 119] the “% Inhibition of T cell blast formation” value was 54%.
For CCOC(=O)NC(c1ccccc1)c1ccc(NC(=O)C2CC(c3cccnc3)=NO2)cc1 (stereo not drawn) [Compound 131], the “% Inhibition of T cell blast formation” value was 95%.
In the case of CN1CCC(N(C)CC(=O)NC(c2ccccc2)c2ccc(NC(=O)C3CC(c4cccnc4)=NO3)cc2)CC1 (stereo not drawn) [Compound 146], the “% Inhibition of T cell blast formation” value is reported as 95%.
For CCCC(=O)NC(c1ccccc1)c1ccc(NC(=O)C2CC(c3cccnc3)=NO2)cc1 (stereo not drawn) [Compound 156], the “% Inhibition of T cell blast formation” value was 56%.
For O=C(Cc1ccccc1)NC(c1ccccc1)c1ccc(NC(=O)C2CC(c3cccnc3)=NO2)cc1 (stereo not drawn) [Compound 166], the “% Inhibition of T cell blast formation” value was 66%.
In the case of CCOc1ccc(C)c(NC(c2ccccc2)c2ccc(NC(=O)C3CC(c4cccnc4)=NO3)cc2)c1 (stereo not drawn) [Compound 172], the “% Inhibition of T cell blast formation” value is reported as 35%.
With CC(=O)Nc1ccccc1NC(c1ccccc1)c1ccc(NC(=O)C2CC(c3cccnc3)=NO2)cc1 (stereo not drawn) [Compound 174] the “% Inhibition of T cell blast formation” value was 42%.
With Cc1cccc(NC(c2ccccc2)c2ccc(NC(=O)C3CC(c4cccnc4)=NO3)cc2)c1C (stereo not drawn) [Compound 175] the “% Inhibition of T cell blast formation” value was 42%.
NC(=O)c1ccccc1NC(c1ccccc1)c1ccc(NC(=O)C2CC(c3cccnc3)=NO2)cc1 (stereo not drawn) [Compound 192] was tested, and the “% Inhibition of T cell blast formation” value was 72%.
In the case of O=C(Nc1ccc(C(Nc2ccccc2O)c2ccccc2)cc1)C1CC(c2cccnc2)=NO1 (stereo not drawn) [Compound 203], the “% Inhibition of T cell blast formation” value is reported as 62%.
With NC(c1ccccc1)c1ccc(NC(=O)[C@@H]2CC(c3cccnc3)=NO2)cc1 (stereo partly drawn) [Compound 205, [5S-(A)]-N-[4-(aminophenylmethyl)phenyl]4,5-dihydro-3-(3-pyridinyl)-5-isoxazolecarboxamide] the “% Inhibition of T cell blast formation” value was 73%.
In the case of NC(c1ccccc1)c1ccc(NC(=O)[C@@H]2CC(c3cccnc3)=NO2)cc1 (stereo partly drawn) [Compound 206, [5S-(B)]-N-[4-(aminophenylmethyl)phenyl]4,5-dihydro-3-(3-pyridinyl)-5-isoxazolecarboxamide], the “% Inhibition of T cell blast formation” value is reported as 66%.
With O=C(Nc1ccc(C(Nc2cccc(F)c2)c2ccccc2)cc1)C1CC(c2cccnc2)=NO1 (stereo not drawn) [Compound 214] the “% Inhibition of T cell blast formation” value was 62%.
In the case of O=C(Nc1ccc(C(Nc2cccc(Cl)c2)c2ccccc2)cc1)C1CC(c2cccnc2)=NO1 (stereo not drawn) [Compound 216], the “% Inhibition of T cell blast formation” value is reported as 70%.

Same assay, conditions: Test Dose 1 × 10^−7 (unit not given), 72 hours, mean where multiple measurements
In the case of O=C(Nc1ccc(C(=NO)c2ccccc2)cc1)C1CC(c2cccnc2)=NO1 (single isomer, unassigned) [Compound 419], the “% Inhibition of T cell blast formation” value is reported as 86%.
In the case of O=C(c1ccc(NC(=O)C2CC(c3cccnc3)=NO2)cc1)c1ccccn1 (single isomer, unassigned) [Compound 489], the “% Inhibition of T cell blast formation” value is reported as 80%.

Same assay, conditions: Test Dose 3 × 10^−7 (unit not given), 72 hours, mean where multiple measurements
With N#CC(OC(N)=O)(c1ccccc1)c1ccc(NC(=O)C2CC(c3cccnc3)=NO2)cc1 (racemic) [Compound 75, (±)-[cyano[4-[[[4,5-dihydro-3-(3-pyridinyl)-5-isoxazolyl]carbonyl]amino]phenyl]phenylmethyl]carbamate] the “% Inhibition of T cell blast formation” value was 67%.
O=C(/C=C/c1c(F)cccc1F)c1ccc(NC(=O)C2CC(c3cccnc3)=NO2)cc1 (racemic) [Compound 468] was tested, and the “% Inhibition of T cell blast formation” value was 61%.
In the case of O=C(/C=C/c1ccc2c(c1)OCO2)c1ccc(NC(=O)C2CC(c3cccnc3)=NO2)cc1 (racemic) [Compound 469], the “% Inhibition of T cell blast formation” value is reported as 65%.
In the case of O=C(/C=C/c1ccccc1C(F)(F)F)c1ccc(NC(=O)C2CC(c3cccnc3)=NO2)cc1 (racemic) [Compound 471], the “% Inhibition of T cell blast formation” value is reported as 54%.
For O=C(/C=C/c1ccccc1F)c1ccc(NC(=O)C2CC(c3cccnc3)=NO2)cc1 (racemic) [Compound 473], the “% Inhibition of T cell blast formation” value was 72%.
With Cc1ccccc1/C=C/C(=O)c1ccc(NC(=O)C2CC(c3cccnc3)=NO2)cc1 (racemic) [Compound 475] the “% Inhibition of T cell blast formation” value was 56%.
In the case of O=C(/C=C/c1c(F)cccc1Cl)c1ccc(NC(=O)C2CC(c3cccnc3)=NO2)cc1 (racemic) [Compound 476], the “% Inhibition of T cell blast formation” value is reported as 67%.
For COc1ccccc1/C=C/C(=O)c1ccc(NC(=O)C2CC(c3cccnc3)=NO2)cc1 (racemic) [Compound 477], the “% Inhibition of T cell blast formation” value was 63%.
In the case of O=C(/C=C/c1ccccc1)c1ccc(NC(=O)C2CC(c3cccnc3)=NO2)cc1 (racemic) [Compound 478], the “% Inhibition of T cell blast formation” value is reported as 70%.
With Nc1ccc(C(=O)c2ccc(NC(=O)C3CC(c4cccnc4)=NO3)cc2)cc1 (stereo not drawn) [Compound 17] the “% Inhibition of T cell blast formation” value was 53%.
In the case of O=C(Nc1ccc(C(O)(Cc2cccnc2)c2ccccc2)cc1)C1CC(c2cccnc2)=NO1 (stereo not drawn) [Compound 73], the “% Inhibition of T cell blast formation” value is reported as 67%.
In the case of O=C(Nc1ccc(C(Nc2ccccc2)c2ccccc2)cc1)C1CC(c2cccnc2)=NO1 (stereo not drawn) [Compound 113], the “% Inhibition of T cell blast formation” value is reported as 37%.
For CN(CCC1OCCO1)C(c1ccccc1)c1ccc(NC(=O)C2CC(c3cccnc3)=NO2)cc1 (stereo not drawn) [Compound 122], the “% Inhibition of T cell blast formation” value was 36%.
With O=C(NC(c1ccccc1)c1ccc(NC(=O)C2CC(c3cccnc3)=NO2)cc1)c1c(F)cccc1F (stereo not drawn) [Compound 158] the “% Inhibition of T cell blast formation” value was 64%.
Cc1cc(NC(c2ccccc2)c2ccc(NC(=O)C3CC(c4cccnc4)=NO3)cc2)no1 (stereo not drawn) [Compound 162] was tested, and the “% Inhibition of T cell blast formation” value was 46%.
With CN(CC(N)=O)C(c1ccccc1)c1ccc(NC(=O)C2CC(c3cccnc3)=NO2)cc1 (stereo not drawn) [Compound 163] the “% Inhibition of T cell blast formation” value was 56%.
For O=C(Nc1ccc(C(Nc2ccc(C(F)(F)F)cc2Br)c2ccccc2)cc1)C1CC(c2cccnc2)=NO1 (stereo not drawn) [Compound 218], the “% Inhibition of T cell blast formation” value was 33%.
